Where “and” joins values, the source holds several entries; their conditions need not be identical. Equal entries are not always repeated.

The target in this assay is T1, DrOTOP1 M133W (Danio rerio, UniProt Q7ZWK8, M133W).
T1 construct: A previously generated codon-optimized full-length DrOTOP1[8]; (UniProt: Q7ZWK8) construct; expressed in transfected cells; host or cells: HEK-293 (CRL-1573, ATCC)
T1 sequence (Q7ZWK8 1-586 M133W): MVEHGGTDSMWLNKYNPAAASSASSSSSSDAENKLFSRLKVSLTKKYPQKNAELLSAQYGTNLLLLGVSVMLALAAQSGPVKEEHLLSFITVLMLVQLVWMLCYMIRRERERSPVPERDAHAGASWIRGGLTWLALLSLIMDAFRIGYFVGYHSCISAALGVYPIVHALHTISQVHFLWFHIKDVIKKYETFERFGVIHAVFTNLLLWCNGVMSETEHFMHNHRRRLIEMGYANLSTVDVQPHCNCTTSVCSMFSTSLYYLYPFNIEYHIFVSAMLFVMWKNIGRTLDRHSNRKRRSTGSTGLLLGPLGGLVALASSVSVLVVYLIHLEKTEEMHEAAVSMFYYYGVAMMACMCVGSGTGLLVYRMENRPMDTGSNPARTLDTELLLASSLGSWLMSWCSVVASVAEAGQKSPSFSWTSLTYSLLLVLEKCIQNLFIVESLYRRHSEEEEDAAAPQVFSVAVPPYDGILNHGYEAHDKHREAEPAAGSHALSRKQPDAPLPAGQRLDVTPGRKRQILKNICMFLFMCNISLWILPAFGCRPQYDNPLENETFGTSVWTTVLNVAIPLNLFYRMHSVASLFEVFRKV
The assay can be described thus: Whole-cell patch-clamp, inhibition of acid-evoked currents, DrOTOP1 M133W. The format is cell-based, zebrafish (Danio rerio). From the text: To functionally test the significance of the two binding sites identified by cryo-EM, we generated point mutations of DrOTOP1 using the binding poses and conformational changes observed in DrOTOP1_C2.2 to guide our mutations. As per the binding pose that best fits our cryo-EM density, C2.2 forms the following interactions in the outer site: hydrophobic packing against many non-polar residues W126, G130, M133, L134, F271, F570, and M573, and π-stacking with W532 (Fig. 5A). In addition, C2.2 could potentially form H-bonds with E267, if the sidechain is protonated or a water bridge is present, and with H574 if it moves closer (Fig. 5A). Likewise, C2.36 presents a heterocyclic nitrogen that can potentially form a H-bond with E267, similarly, provided a protonation or water bridge is present (Fig. 5B). In addition, C2.36 forms a T-shaped π-stacking interaction with H574, whose sidechain has rotated 90 degrees (compared to DrOTOP1_apo), presumably to accommodate the interaction (Fig. 5B). Considering other inhibitors discovered from the second round of screening, many contain functional groups like the carbonyl groups of Group 1 molecules and the heterocyclic nitrogen atoms of Group 2 molecules (Supplementary Fig. 3E), that can potentially form similar H-bonds with E267 as C2.2 and C2.36, assuming the binding modes are similar. In the central site, C2.2 binds with the following interactions: hydrophobic packing with residues V201, F271, A274, V278, and A388, π-stacking with F277, and H-bonding with E384 (Fig. 5C).
Each non-aromatic residue was mutated to tryptophan, which was expected to cause steric occlusion. […]
Whole-cell patch-clamp recording was performed as previously described[6],[22],[25]. Recordings were made with an Axopatch 200B amplifier, digitized with a Digidata 1322a 16-bit data acquisition system, acquired with pClamp 8.2 and analyzed with Clampfit 10 (Molecular Devices). […]

For `C=C(C)COc1ccccc1NC(=O)c1nc[nH]c1C` [C2.2], the Inhibition of currents is, setting by setting: (10 µM, single cells or mean, mean) 71.39%; (10 µM, single cells or mean, single cells) 74.2591% and 52.599% and 79.1509% and 79.3522% and 71.5803%. In the case of `O=C(/C(=N\O)c1ccccc1)c1ccccc1` [C11, benzil monoxime], the Inhibition of currents (100 µM, single cells) is 51.1084% and 50.3496% and 47.6418% and 59.4138% and 72.1088%.
